Reference: BindingDB's records for doi:10.1016/S0960-894X(01)00722-3 (Janssen-Cilag, 2001)

Tests used:
[1] = molecular target: T1, Alpha-1A adrenergic receptor (Homo sapiens, UniProt P35348); test: ChEBML_33869
T1 sequence (P35348 whole entry): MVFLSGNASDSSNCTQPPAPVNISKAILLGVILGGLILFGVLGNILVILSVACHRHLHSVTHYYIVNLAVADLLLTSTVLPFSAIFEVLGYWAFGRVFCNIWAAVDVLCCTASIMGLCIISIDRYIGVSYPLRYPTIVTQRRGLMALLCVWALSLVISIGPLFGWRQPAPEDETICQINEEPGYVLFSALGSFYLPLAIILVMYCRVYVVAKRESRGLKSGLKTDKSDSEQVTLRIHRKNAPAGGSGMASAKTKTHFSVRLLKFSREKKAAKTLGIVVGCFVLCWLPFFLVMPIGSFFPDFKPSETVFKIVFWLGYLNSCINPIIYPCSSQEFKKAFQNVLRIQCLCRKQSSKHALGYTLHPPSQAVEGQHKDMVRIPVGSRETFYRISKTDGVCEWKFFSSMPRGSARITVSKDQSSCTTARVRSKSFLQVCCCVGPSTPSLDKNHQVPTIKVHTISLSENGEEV
Excerpt: Binding affinity for human cloned Alpha-1A adrenergic receptor

[2] = molecular target: T2, Alpha-2A adrenergic receptor (Homo sapiens, UniProt P08913); test: ChEBML_33198
T2 sequence (P08913 whole entry): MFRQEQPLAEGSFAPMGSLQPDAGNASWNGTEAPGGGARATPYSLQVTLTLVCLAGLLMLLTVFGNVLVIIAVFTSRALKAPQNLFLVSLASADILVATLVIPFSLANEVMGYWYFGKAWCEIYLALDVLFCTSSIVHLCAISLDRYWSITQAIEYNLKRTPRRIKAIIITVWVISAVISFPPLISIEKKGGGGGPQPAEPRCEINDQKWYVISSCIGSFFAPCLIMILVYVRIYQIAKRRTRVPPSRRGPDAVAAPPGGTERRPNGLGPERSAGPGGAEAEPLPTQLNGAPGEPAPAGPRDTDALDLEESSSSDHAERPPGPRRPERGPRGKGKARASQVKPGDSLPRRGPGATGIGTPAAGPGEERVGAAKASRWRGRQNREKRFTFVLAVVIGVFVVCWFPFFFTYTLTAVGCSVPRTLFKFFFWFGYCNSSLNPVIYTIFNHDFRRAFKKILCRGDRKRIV
Excerpt: Binding affinity for human cloned Alpha-2A adrenergic receptor

D(2) dopamine receptor [3] = molecular target: D(2) dopamine receptor (Homo sapiens, UniProt P14416); test: ChEBML_61646
Excerpt: Binding affinity for human cloned Dopamine receptor D2L

Histamine H1 receptor = Histamine H1 receptor (Homo sapiens, UniProt P35367); test: ChEBML_84541
Excerpt: Binding affinity at human cloned Histamine H1 receptor expressed in CHO cells by [3H]pyrilamine displacement.

[4] = molecular target: 5-hydroxytryptamine receptor 1D (Homo sapiens, UniProt P28221); test: ChEBML_1745
Excerpt: Binding affinity for human cloned 5-hydroxytryptamine 1D receptor

[5] = molecular target: T3, 5-hydroxytryptamine receptor 1A (Homo sapiens, UniProt P08908); test: ChEBML_1016
T3 sequence (P08908 whole entry): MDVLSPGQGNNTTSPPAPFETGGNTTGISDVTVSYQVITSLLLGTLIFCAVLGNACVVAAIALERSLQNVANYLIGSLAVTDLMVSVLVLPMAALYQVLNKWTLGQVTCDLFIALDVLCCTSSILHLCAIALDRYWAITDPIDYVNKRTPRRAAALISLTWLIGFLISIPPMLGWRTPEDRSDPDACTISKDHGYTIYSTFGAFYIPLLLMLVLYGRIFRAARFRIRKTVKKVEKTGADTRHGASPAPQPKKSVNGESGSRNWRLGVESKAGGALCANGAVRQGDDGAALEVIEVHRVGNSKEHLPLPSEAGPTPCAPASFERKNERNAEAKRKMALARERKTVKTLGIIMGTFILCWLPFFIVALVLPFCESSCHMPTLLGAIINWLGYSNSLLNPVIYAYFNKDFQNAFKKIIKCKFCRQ
Excerpt: Binding affinity for human cloned 5-hydroxytryptamine 1A receptor

[6] = molecular target: T4, Alpha-2C adrenergic receptor (Homo sapiens, UniProt P18825); test: ChEBML_33661
T4 sequence (P18825 whole entry): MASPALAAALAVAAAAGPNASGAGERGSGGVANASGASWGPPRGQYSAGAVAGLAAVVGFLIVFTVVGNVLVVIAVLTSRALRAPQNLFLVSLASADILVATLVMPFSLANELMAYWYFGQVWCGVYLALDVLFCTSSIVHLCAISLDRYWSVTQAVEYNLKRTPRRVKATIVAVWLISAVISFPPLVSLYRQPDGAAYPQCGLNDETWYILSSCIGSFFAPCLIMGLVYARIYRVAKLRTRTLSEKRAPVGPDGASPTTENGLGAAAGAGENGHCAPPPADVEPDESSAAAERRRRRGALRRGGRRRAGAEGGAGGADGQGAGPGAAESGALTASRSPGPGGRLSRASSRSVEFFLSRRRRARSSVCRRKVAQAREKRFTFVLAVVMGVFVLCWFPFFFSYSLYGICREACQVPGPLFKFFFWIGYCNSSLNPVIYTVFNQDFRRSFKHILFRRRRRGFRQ
Excerpt: Binding affinity for human cloned Alpha-2C adrenergic receptor

[7] = molecular target: T5, 5-hydroxytryptamine receptor 2C (Homo sapiens, UniProt P28335); test: ChEBML_2740
T5 sequence (P28335 whole entry): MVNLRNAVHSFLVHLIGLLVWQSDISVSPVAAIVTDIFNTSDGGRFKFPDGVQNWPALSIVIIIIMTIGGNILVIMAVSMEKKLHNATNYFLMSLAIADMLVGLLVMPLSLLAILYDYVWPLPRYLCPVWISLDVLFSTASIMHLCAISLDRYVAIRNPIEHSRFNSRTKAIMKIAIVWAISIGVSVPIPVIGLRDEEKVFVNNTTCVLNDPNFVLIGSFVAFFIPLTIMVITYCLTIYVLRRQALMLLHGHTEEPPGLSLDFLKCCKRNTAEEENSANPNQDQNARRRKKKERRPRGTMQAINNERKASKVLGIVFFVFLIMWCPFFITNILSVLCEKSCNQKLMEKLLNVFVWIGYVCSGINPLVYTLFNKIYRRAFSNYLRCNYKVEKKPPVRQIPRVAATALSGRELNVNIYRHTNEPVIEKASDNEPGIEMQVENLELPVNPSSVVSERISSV
Excerpt: Binding affinity at human cloned 5-hydroxytryptamine 2C receptor expressed in CHO cells by [3H]mesulergine displacement.

D(4) dopamine receptor = molecular target: T6, D(4) dopamine receptor (Homo sapiens, UniProt P21917); test: ChEBML_60841
T6 sequence (P21917 whole entry): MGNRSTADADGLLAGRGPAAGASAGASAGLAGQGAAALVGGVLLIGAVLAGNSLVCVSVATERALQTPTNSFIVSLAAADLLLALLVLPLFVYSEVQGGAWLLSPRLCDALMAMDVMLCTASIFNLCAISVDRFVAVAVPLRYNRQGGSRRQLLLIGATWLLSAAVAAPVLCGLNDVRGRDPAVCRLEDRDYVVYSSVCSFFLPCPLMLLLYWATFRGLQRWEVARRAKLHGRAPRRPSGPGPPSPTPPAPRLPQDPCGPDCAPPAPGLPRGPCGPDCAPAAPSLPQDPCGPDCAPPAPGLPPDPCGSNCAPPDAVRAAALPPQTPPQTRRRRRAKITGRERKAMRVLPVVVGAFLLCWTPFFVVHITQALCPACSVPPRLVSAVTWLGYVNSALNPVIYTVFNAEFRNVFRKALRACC
Excerpt: Binding affinity for human cloned Dopamine receptor D4

D(3) dopamine receptor = D(3) dopamine receptor (Homo sapiens, UniProt P35462); test: ChEBML_62451
Excerpt: Binding affinity for human cloned Dopamine receptor D3

[8] = molecular target: T7, 5-hydroxytryptamine receptor 2A (Homo sapiens, UniProt P28223); test: ChEBML_2507
Excerpt: (§1) Binding affinity for human cloned 5-HT2A receptor expressed in L929 cells using [125I]R91150 as radioligand

D(2) dopamine receptor [9] = molecular target: D(2) dopamine receptor (Rattus norvegicus, UniProt P61169); test: ChEBML_60811
Excerpt: Binding affinity for rat Dopamine receptor D2

[10] = molecular target: T7, 5-hydroxytryptamine receptor 2A; test: as §1

Chain of 5-hydroxytryptamine receptor 1D (P28221 whole entry): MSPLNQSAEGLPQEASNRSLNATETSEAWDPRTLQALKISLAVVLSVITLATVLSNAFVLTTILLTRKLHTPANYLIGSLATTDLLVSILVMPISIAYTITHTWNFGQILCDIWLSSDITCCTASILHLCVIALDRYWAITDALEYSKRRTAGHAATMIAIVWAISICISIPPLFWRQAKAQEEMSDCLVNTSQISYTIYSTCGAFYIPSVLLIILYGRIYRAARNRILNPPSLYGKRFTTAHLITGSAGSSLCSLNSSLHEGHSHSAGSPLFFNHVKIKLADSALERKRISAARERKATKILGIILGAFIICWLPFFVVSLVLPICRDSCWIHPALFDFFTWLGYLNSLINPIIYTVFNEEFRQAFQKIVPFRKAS
T7 sequence (P28223 whole entry): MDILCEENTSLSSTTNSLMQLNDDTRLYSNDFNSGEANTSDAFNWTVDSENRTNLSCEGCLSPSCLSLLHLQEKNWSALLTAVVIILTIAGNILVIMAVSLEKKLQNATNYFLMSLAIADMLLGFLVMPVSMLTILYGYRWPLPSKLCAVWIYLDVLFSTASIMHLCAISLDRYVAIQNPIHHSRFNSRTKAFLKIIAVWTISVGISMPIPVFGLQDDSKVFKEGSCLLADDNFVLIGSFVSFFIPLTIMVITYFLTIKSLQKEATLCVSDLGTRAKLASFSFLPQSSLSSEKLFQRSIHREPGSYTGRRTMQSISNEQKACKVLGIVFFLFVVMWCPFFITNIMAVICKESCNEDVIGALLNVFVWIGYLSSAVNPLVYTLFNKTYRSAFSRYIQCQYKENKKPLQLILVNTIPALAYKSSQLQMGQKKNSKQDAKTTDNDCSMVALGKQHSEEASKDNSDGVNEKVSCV
Chain of D(2) dopamine receptor (Rattus norvegicus, UniProt P61169) (P61169 whole entry): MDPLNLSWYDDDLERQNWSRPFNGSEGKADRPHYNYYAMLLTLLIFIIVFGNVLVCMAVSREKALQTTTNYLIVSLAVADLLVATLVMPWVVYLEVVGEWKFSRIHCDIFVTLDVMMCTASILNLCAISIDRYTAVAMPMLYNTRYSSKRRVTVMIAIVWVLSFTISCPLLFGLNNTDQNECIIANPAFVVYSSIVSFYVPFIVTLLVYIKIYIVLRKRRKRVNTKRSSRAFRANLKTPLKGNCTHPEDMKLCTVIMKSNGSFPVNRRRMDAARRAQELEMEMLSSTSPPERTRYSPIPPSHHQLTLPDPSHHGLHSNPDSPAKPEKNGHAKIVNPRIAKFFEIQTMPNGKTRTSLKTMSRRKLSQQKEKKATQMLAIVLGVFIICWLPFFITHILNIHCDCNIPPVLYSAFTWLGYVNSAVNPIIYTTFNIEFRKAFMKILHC
Chain of D(2) dopamine receptor (Homo sapiens, UniProt P14416) (P14416 whole entry): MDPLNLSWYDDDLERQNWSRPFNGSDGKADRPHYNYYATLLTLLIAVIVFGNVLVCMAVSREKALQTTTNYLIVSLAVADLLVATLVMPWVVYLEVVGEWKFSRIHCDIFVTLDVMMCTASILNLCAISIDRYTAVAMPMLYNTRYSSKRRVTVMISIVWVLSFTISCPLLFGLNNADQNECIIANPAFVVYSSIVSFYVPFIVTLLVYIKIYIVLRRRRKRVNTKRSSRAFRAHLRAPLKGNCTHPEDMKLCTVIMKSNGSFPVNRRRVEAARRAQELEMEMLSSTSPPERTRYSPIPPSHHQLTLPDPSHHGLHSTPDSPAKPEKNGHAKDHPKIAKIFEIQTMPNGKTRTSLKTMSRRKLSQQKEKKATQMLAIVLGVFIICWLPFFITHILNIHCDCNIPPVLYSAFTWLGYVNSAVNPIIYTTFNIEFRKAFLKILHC
Chain of Histamine H1 receptor (P35367 whole entry): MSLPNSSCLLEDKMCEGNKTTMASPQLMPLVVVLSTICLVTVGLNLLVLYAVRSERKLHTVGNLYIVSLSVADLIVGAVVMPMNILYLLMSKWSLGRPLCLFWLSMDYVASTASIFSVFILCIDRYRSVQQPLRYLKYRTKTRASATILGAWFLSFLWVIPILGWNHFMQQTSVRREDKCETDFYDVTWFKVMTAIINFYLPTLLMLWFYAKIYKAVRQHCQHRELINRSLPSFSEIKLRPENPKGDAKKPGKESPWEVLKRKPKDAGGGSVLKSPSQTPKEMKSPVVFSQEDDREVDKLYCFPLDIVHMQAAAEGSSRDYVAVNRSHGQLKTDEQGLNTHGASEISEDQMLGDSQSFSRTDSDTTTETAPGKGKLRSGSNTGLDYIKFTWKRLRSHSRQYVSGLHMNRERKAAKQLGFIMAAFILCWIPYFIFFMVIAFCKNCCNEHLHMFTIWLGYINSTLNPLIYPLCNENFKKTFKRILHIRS
Chain of D(3) dopamine receptor (P35462 as listed by the source): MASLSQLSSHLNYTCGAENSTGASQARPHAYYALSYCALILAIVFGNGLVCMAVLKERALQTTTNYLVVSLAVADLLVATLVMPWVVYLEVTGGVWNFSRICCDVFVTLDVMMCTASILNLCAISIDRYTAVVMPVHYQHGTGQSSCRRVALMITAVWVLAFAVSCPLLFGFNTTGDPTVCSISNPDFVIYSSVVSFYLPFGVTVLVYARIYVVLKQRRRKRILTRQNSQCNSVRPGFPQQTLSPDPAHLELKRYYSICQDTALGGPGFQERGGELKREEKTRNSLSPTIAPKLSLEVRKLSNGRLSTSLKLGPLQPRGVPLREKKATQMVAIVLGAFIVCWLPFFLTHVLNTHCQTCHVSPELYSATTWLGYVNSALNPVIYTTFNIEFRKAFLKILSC

IC50 [1]	IC50 [2]	IC50 (D(2) dopamine receptor [3])	IC50 (Histamine H1 receptor)	IC50 [4]	IC50 [5]	IC50 [6]	IC50 [7]	IC50 (D(4) dopamine receptor)	IC50 (D(3) dopamine receptor)	IC50 [8]	IC50 (D(2) dopamine receptor [9])	IC50 [10]	SMILES
14 nM	479 nM	8.7 nM	2.3 nM	135 nM	200 nM	871 nM	1 nM	2.6 nM	0.55 nM	3.5 nM	8.9 nM	–	CN(C)CC1CC2c3ccccc3Cc3ccc(Cl)cc3N2O1 (configuration not stated)
–	–	–	3.8 nM	–	–	–	11 nM	–	–	54 nM	–	–	CN(C)CC1CC2c3cc(F)ccc3Cc3ccccc3N2O1 (configuration not stated)
–	–	–	1.3 nM	–	–	–	4.7 nM	–	–	6.9 nM	–	–	CN(C)CC1CC2c3ccccc3Cc3cc(F)ccc3N2O1 (configuration not stated)
–	–	–	15 nM	–	–	–	10 nM	–	–	32 nM	–	–	CN(C)CC1CC2c3ccccc3Cc3cccc(Cl)c3N2O1 (configuration not stated)
–	–	–	14 nM	–	–	–	19 nM	–	–	302 nM	–	–	COc1ccc2c(c1)C1CC(CN(C)C)ON1c1ccccc1C2 (configuration not stated)
–	–	–	48 nM	–	–	–	7.6 nM	–	–	68 nM	–	–	CN(C)CC1CC2c3c(cccc3C(F)(F)F)Cc3ccccc3N2O1 (configuration not stated)
–	–	–	1.7 nM	–	–	–	5 nM	–	–	24 nM	–	–	CN(C)CC1CC2c3ccccc3Cc3c(F)cccc3N2O1 (configuration not stated)
–	–	–	37 nM	–	–	–	437 nM	–	–	1000 nM	–	–	CN(C)CC1CC2c3cccc(C(F)(F)F)c3Cc3ccccc3N2O1 (configuration not stated)
–	–	–	7.9 nM	–	–	–	11 nM	–	–	–	–	22 nM	CN(C)CC1CC2c3ccccc3Cc3ccc(-c4ccccc4)cc3N2O1 (configuration not stated)
45 nM	501 nM	36 nM	2.6 nM	302 nM	1590 nM	1170 nM	–	14 nM	14 nM	–	< 1000 nM	–	CN(C)CC1CC2c3ccccc3Cc3ccc(F)cc3N2O1 (configuration not stated)
43 nM	< 1000 nM	55 nM	5.9 nM	< 1000 nM	< 1000 nM	< 1000 nM	3 nM	< 1000 nM	< 1000 nM	3.1 nM	< 1000 nM	–	Cc1ccc2c(c1)N1OC(CN(C)C)CC1c1ccccc1C2 (configuration not stated)
–	–	–	12 nM	–	–	–	30 nM	–	–	48 nM	–	–	Cc1cccc2c1C1CC(CN(C)C)ON1c1ccccc1C2 (configuration not stated)
–	–	–	16 nM	–	–	–	6.3 nM	–	–	–	–	–	Cc1ccc2c(c1)Cc1ccccc1N1OC(CN(C)C)CC21 (configuration not stated)
–	–	–	< 1000 nM	–	–	–	< 1000 nM	–	–	< 1000 nM	–	–	CN(C)CC1CC2c3cc(C(F)(F)F)ccc3Cc3ccccc3N2O1 (configuration not stated)
–	–	–	6 nM	–	–	–	3.9 nM	–	–	91 nM	–	–	Cc1cccc2c1Cc1ccccc1C1CC(CN(C)C)ON21 (configuration not stated)
–	–	–	< 1000 nM	–	–	–	< 1000 nM	–	–	< 1000 nM	–	–	CN(C)CC1CC2c3c(F)cccc3Cc3ccccc3N2O1 (configuration not stated)
–	–	–	< 1000 nM	–	–	–	< 1000 nM	–	–	< 1000 nM	–	–	CN(C)CC1CC2c3cccc(Cl)c3Cc3ccccc3N2O1 (configuration not stated)
–	–	–	2.3 nM	–	–	–	12 nM	–	–	–	–	–	CN(C)CC1CC2c3cccc(F)c3Cc3ccccc3N2O1 (configuration not stated)
162 nM	< 1000 nM	447 nM	17 nM	< 1000 nM	< 1000 nM	< 1000 nM	6.2 nM	< 1000 nM	< 1000 nM	–	–	–	CN(C)CC1CC2c3cc(F)ccc3Cc3ccc(F)cc3N2O1 (configuration not stated)
